Data on 7 compounds can be found in ChEMBL document CHEMBL3217454, “Structureactivity relationship studies using peptide arrays: the example of HIV-1 Revintegrase interaction” (Medchemcomm, 2013).

Square brackets hold non-standard residues; d marks the D form. Peptide text beside a SMILES is read from it. NMeR = CN[C@@H](CCCNC(=N)N)C(=O)O; NMeF = CN[C@@H](Cc1ccccc1)C(=O)O; NMeI = CC[C@H](C)[C@H](NC)C(=O)O; NMeK = CN[C@@H](CCCCN)C(=O)O

Test [1] concerns the target Human immunodeficiency virus type 1 integrase (Human immunodeficiency virus 1) (UniProt Q7ZJM1). Description: Binding affinity to HIV-1 integrase measured after overnight incubation by chemiluminescence analysis relative to IN 174-188. Further details: concentration or dose not given beside the values.
Test [2] deals with Human immunodeficiency virus 1. Description: Binding affinity to HLT-tagged HIV-1 Rev measured after overnight incubation by chemiluminescence analysis relative to IN 174-188. Set-up: concentration or dose not given beside the values.

Human immunodeficiency virus type 1 integrase (Human immunodeficiency virus 1), sequence (Q7ZJM1 as listed by the source): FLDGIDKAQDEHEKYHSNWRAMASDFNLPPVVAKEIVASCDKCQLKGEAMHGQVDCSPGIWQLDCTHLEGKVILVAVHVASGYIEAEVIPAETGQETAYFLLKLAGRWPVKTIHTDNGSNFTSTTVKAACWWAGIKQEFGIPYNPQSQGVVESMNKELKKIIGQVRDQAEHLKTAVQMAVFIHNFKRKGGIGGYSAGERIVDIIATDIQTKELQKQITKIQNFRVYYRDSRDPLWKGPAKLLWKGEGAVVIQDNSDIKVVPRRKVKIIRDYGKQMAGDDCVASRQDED

For `CC[C@H](C)[C@H](NC(=O)[C@H](Cc1ccccc1)NC(=O)[C@@H](NC(=O)[C@H](C)NC(=O)[C@H](CCSC)NC(=O)[C@H](CCC(N)=O)NC(=O)[C@@H](NC(=O)[C@H](C)NC(=O)[C@@H](N)[C@@H](C)O)C(C)C)C(C)C)C(=O)N[C@@H](Cc1cnc[nH]1)C(=O)N[C@@H](CC(N)=O)C(=O)N[C@@H](Cc1ccccc1)C(=O)N[C@@H](CCCCN)C(=O)N[C@@H](CCCNC(=N)N)C(=O)N[C@@H](C)C(=O)O` (H-TAVQMAVFIHNFKRA-OH), the values for the Activity in test [1] and in test [2] were 109% and 209%, respectively.
In the same order, the values of `CC[C@H](C)[C@H](NC(=O)[C@H](Cc1ccccc1)NC(=O)[C@@H](NC(=O)[C@H](C)NC(=O)[C@H](CCSC)NC(=O)[C@H](CCC(N)=O)NC(=O)[C@@H](NC(=O)[C@H](C)NC(=O)[C@@H](N)[C@@H](C)O)C(C)C)C(C)C)C(=O)N[C@@H](Cc1cnc[nH]1)C(=O)N[C@@H](CC(N)=O)C(=O)N[C@@H](Cc1ccccc1)C(=O)N[C@@H](CCCCN)C(=O)N[C@@H](CCCNC(=N)N)C(=O)N(C)[C@@H](CCCCN)C(=O)O` (H-TAVQMAVFIHNFKR[NMeK]-OH) are 117% and 201%.
In the same order, the values of `CC[C@H](C)[C@H](NC(=O)[C@H](Cc1ccccc1)NC(=O)[C@@H](NC(=O)[C@H](C)NC(=O)[C@H](CCSC)NC(=O)[C@H](CCC(N)=O)NC(=O)[C@@H](NC(=O)[C@H](C)NC(=O)[C@@H](N)[C@@H](C)O)C(C)C)C(C)C)C(=O)N[C@@H](Cc1cnc[nH]1)C(=O)N[C@@H](CC(N)=O)C(=O)N[C@@H](Cc1ccccc1)C(=O)N[C@@H](CCCCN)C(=O)N(C)[C@@H](CCCNC(=N)N)C(=O)N[C@@H](CCCCN)C(=O)O` (H-TAVQMAVFIHNFK[NMeR]K-OH) are 123% and 75%.
In the same order, the values of `CC[C@H](C)[C@H](NC(=O)[C@H](Cc1ccccc1)NC(=O)[C@@H](NC(=O)[C@H](C)NC(=O)[C@H](CCSC)NC(=O)[C@H](CCC(N)=O)NC(=O)[C@@H](NC(=O)[C@H](C)NC(=O)[C@@H](N)[C@@H](C)O)C(C)C)C(C)C)C(=O)N[C@@H](Cc1cnc[nH]1)C(=O)N[C@@H](CC(N)=O)C(=O)N[C@@H](Cc1ccccc1)C(=O)N(C)[C@@H](CCCCN)C(=O)N[C@@H](CCCNC(=N)N)C(=O)N[C@@H](CCCCN)C(=O)O` (H-TAVQMAVFIHNF[NMeK]RK-OH) are 130% and 70%.
`CC[C@H](C)[C@H](NC(=O)[C@H](Cc1ccccc1)NC(=O)[C@@H](NC(=O)[C@H](C)NC(=O)[C@H](CCSC)NC(=O)[C@H](CCC(N)=O)NC(=O)[C@@H](NC(=O)[C@H](C)NC(=O)[C@@H](N)[C@@H](C)O)C(C)C)C(C)C)C(=O)N[C@@H](Cc1cnc[nH]1)C(=O)N[C@@H](CC(N)=O)C(=O)N(C)[C@@H](Cc1ccccc1)C(=O)N[C@@H](CCCCN)C(=O)N[C@@H](CCCNC(=N)N)C(=O)N[C@@H](CCCCN)C(=O)O` (H-TAVQMAVFIHN[NMeF]KRK-OH): the Activity in test [1] turned out to be 122%; in test [2], 50%.
In the same order, the values of `CC[C@H](C)[C@@H](C(=O)N[C@@H](Cc1cnc[nH]1)C(=O)N[C@@H](CC(N)=O)C(=O)N[C@@H](Cc1ccccc1)C(=O)N[C@@H](CCCCN)C(=O)N[C@@H](CCCNC(=N)N)C(=O)N[C@@H](CCCCN)C(=O)O)N(C)C(=O)[C@H](Cc1ccccc1)NC(=O)[C@@H](NC(=O)[C@H](C)NC(=O)[C@H](CCSC)NC(=O)[C@H](CCC(N)=O)NC(=O)[C@@H](NC(=O)[C@H](C)NC(=O)[C@@H](N)[C@@H](C)O)C(C)C)C(C)C` (H-TAVQMAVF[NMeI]HNFKRK-OH) are 123% and 107%.
In the same order, the values of `CC[C@H](C)[C@H](NC(=O)[C@H](Cc1ccccc1)N(C)C(=O)[C@@H](NC(=O)[C@H](C)NC(=O)[C@H](CCSC)NC(=O)[C@H](CCC(N)=O)NC(=O)[C@@H](NC(=O)[C@H](C)NC(=O)[C@@H](N)[C@@H](C)O)C(C)C)C(C)C)C(=O)N[C@@H](Cc1cnc[nH]1)C(=O)N[C@@H](CC(N)=O)C(=O)N[C@@H](Cc1ccccc1)C(=O)N[C@@H](CCCCN)C(=O)N[C@@H](CCCNC(=N)N)C(=O)N[C@@H](CCCCN)C(=O)O` (H-TAVQMAV[NMeF]IHNFKRK-OH) are 141% and 152%.
